Patent publication US12534699B2, “Method for promoting growth of bacteria of genus Bifidobacterium” (KABUSHIKI KAISHA YAKULT HONSHA, priority 2019, dated 2026)

Legend:
[1] = tested on: Bifidobacterium breve YIT 12272 (BbY); assay: Culture of BbY in whey culture medium with L-cystine or L-cysteine; type: cell-based; conditions: for concentration at which the viable cell count was maximum: whey simultaneous heating culture medium, 12 hours
Procedure: (§1) A skimmed milk powder was dissolved in RO water at 12% (w/v), and the 12% (w/v) skimmed milk was adjusted to a pH of 4.6 with 5 N HCl, followed by centrifugation at 3,000×g for 5 minutes. Subsequently, the supernatant was adjusted to a pH of 6.5 with 5 N NaOH and was centrifuged at 10,000×g for 15 to 30 minutes. The supernatant was dispensed in 10 mL aliquots in a rimmed medium-sized test tube while replacing the headspace with nitrogen gas and sealed with a butyl rubber stopper. Subsequently, the supernatant was sterilized by heat in an autoclave at 115° C. for 30 minutes to provide a whey culture medium separated before heating. In addition, as in the skimmed milk culture medium, simultaneous heating culture medium was prepared in anaerobic conditions by adding L-cystine or L-cysteine before heating and then performing heat sterilization. The addition concentration of L-cystine or L-cysteine was adjusted to 0.001, 0.003, 0.005, 0.01, 0.03, 0.05, or 0.1% (w/v) as the final concentration.
(§2) Inoculation and culture were performed as in Example 1 except that only when BbY was cultured in the skimmed milk culture medium, the culture time was 9 hours.
As in Example 2, whey separated before heating and simultaneous heating culture media with L-cysteine was prepared. In addition, a culture medium in which L-cysteine was added after heat sterilization and immediately before inoculation (individual heating culture medium) was also prepared. The addition concentration of L-cysteine was 0.03 (w/v) % as the final concentration.
A skimmed milk powder was dissolved in RO water at 12% (w/v), and the 12% (w/v) skimmed milk was sterilized by heat in an autoclave at 115° C. for 30 minutes in anaerobic conditions by nitrogen gas and was then adjusted to a pH of 4.6 with 5 N HCl, followed by centrifugation at 3,000×g for 5 minutes. Subsequently, the supernatant was adjusted to a pH of 6.5 with 5 N NaOH and was centrifuged at 10,000×g for 15 to 30 minutes. The supernatant was dispensed in 10 mL aliquots in a pre-sterilized rimmed medium-sized test tube while replacing the headspace with nitrogen gas and sealed with a butyl rubber stopper to provide a whey culture medium separated after heating. In addition, as in the skimmed milk culture media of Example 1, in anaerobic conditions, a culture medium in which L-cysteine was added before heating and then heat sterilization was performed (simultaneous heating culture medium) and a culture medium in which addition was performed after heat sterilization and before adjustment to pH 4.6 (individual heating culture medium) were also prepared.
Inoculation and culture were performed as in Example 1.
Based on the viable cell counts in (iii), each viable cell count ratio was calculated by dividing the viable cell count in the simultaneous heating culture medium by the viable cell count in the individual heating culture medium.

[2] = tested on: Bifidobacterium bifidum YIT 10347 (BF-1); assay: Culture of BF-1 in whey culture medium with L-cystine or L-cysteine; type: cell-based; conditions: BF-1, whey simultaneous heating culture medium, 12 hours
Procedure: as §1, §2

[3] = whey separated after heating, L-cysteine, individual heating, culture time 9 h
[4] = whey separated after heating, L-cysteine, individual heating, culture time 12 h
[5] = whey separated after heating, L-cysteine, simultaneous heating, culture time 9 h
[6] = whey separated after heating, L-cysteine, simultaneous heating, culture time 12 h
[7] = whey separated before heating, L-cysteine 0.03 (w/v) %, individual heating, culture time 9 h
[8] = whey separated before heating, L-cysteine 0.03 (w/v) %, individual heating, culture time 12 h
[9] = whey separated before heating, L-cysteine 0.03 (w/v) %, simultaneous heating, culture time 9 h
[10] = whey separated before heating, L-cysteine 0.03 (w/v) %, simultaneous heating, culture time 12 h

## N[C@@H](CSSC[C@H](N)C(=O)O)C(=O)O [L-cystine]
[1]
  concentration at which the viable cell count was maximum: 0.01 % (w/v)
[2]
  concentration at which the viable cell count was maximum: 0.03 % (w/v)

## Cl.N[C@@H](CS)C(=O)O [L-cysteine, L-cysteine hydrochloride]
[1]; [3]
  Acidity: 3.43 ml/9 g
  Viable cell count: 8.89 × 10^8 CFU/ml
  pH: 5.14
[1]; [4]
  Acidity: 4.78 ml/9 g
  Viable cell count: 1.32 × 10^9 CFU/ml
  pH: 4.81
[1]; [5]
  Acidity: 4.23 ml/9 g
  Viable cell count: 1.29 × 10^9 CFU/ml
  pH: 4.85
[1]; [6]
  Acidity: 7.28 ml/9 g
  Viable cell count: 2.22 × 10^9 CFU/ml
  pH: 4.32
[1]; whey separated after heating, culture time 9 h
  Viable cell count ratio (simultaneous/individual): 1.45
[1]; whey separated after heating, culture time 12 h
  Viable cell count ratio (simultaneous/individual): 1.68
[1]; [7]
  Acidity: 2.15 ml/9 g
  Viable cell count: 1.24 × 10^8 CFU/ml
  pH: 4.97
[1]; [8]
  Acidity: 2.55 ml/9 g
  Viable cell count: 1.42 × 10^8 CFU/ml
  pH: 4.82
[1]; [9]
  Acidity: 2.15 ml/9 g
  Viable cell count: 2.53 × 10^8 CFU/ml
  pH: 5.01
[1]; [10]
  Acidity: 2.29 ml/9 g
  Viable cell count: 3.29 × 10^8 CFU/ml
  pH: 4.85
[1]; whey separated before heating, culture time 9 h
  Viable cell count ratio (simultaneous/individual): 2.04
[1]; whey separated before heating, culture time 12 h
  Viable cell count ratio (simultaneous/individual): 2.31
[1]
  concentration at which the viable cell count was maximum: 0.01 % (w/v)
[2]
  concentration at which the viable cell count was maximum: 0.03 % (w/v)
